Test results published in US20040152784A1, “Pharmaceutical composition and method for treatment of a urea cycle deficiency or sickle-cell anaemia” (Special Products Limited, priority 2002, published 2004).
Values after ≈ are worked out from the molar mass of the structure shown. “Also recorded” adds a separate entry of the source. Like-named read-outs stand apart in the source and are kept apart here. Each block holds one molecule with its values, some of them ahead of it. Residues, ends and D or L forms follow the SMILES beside them.

Experiments:
[1] = cited from earlier work
[2] = cited from earlier work; for Stability / hydrolysis in water: in words
[3] = Bulk density and powder properties; type: physicochemical
Experimental: A pharmaceutical composition made by either of such methods typically has a bulk density of about 52.6 g/100 ml. […] A 25 g quantity of the granulated pharmaceutical composition will thus approximately half fill a 100 ml bottle.

Solubility in water = type: physicochemical; conditions: in water at 10° C.; read-out: maximum solubility of sodium 4-phenylbutyrate
[4] = tested on: bacterial and fungal growth; test: Prevention of bacterial and fungal growth in the concentrated flavored solution without preservative; type: cell-based; conditions: 250 mg/ml, no preservative
Description: This may not apply at much lower concentrations. Therefore, the concentrated solution should be diluted by the patient's carer or guardian immediately before it is consumed by the patient. Thus the patient's carer or guardian should not prepare a jug of ready-to-use liquid to last a week or so.

Structure (SMILES): COC(=O)[C@H](Cc1ccccc1)NC(=O)[C@@H](N)CC(=O)O [Aspartame] (H-Asp-Phe-OMe)
- solubility [1]: 10 mg/mL (≈ 34 mM)
- hydrolyses significantly to phenylalanine (non-sweet) within ([2]; in water): ≤ 6 months
- Stability / hydrolysis in water [2]: hydrolyses to phenylalanine within a few weeks; also recorded: Hydrolyses in water

Structure (SMILES): OC[C@@H](O)[C@@H](O[C@H]1O[C@H](CO)[C@@H](O)[C@H](O)[C@H]1O)[C@H](O)[C@@H](O)CO [Maltitol]
- Solubility in Water ([1]; in words): Very soluble

Structure (SMILES): CC1=CC(=O)NS(=O)(=O)O1 [Potassium acesulfame]
- Dissolution ([1]; in words): Fast dissolution
- Solubility in Water ([1]; in words): Very soluble
- Stability / hydrolysis in water [2]: Stable in water

- bulk density [3]: about 26.4 g/100 ml
- hygroscopicity [3]: somewhat hygroscopic
- solubility (Solubility in water): 250 mg/mL
Structure (SMILES): O=C([O-])CCCc1ccccc1.[Na+] [Sodium 4-phenylbutyrate]
- prevention of bacterial and fungal growth [4]: prevents such growth

Structure (SMILES): O=C1NS(=O)(=O)c2ccccc21.[Na] [Sodium Saccharine]
- Solubility in Water ([1]; in words): Very soluble

Structure (SMILES): O=S(=O)([O-])NC1CCCCC1.[Na+] [Sodium cyclamate]
- Solubility in Water ([1]; in words): Soluble
